{"source": "patent US4605661A", "about": "“Aromastase inhibiting α,α-diarylimidazole-4(5)-propionitriles, α,α-diarylimidazole-4(5)-propionamides, and 4(5)-(2,2-diarylethyl)imidazoles” (Eli Lilly and Company, priority 1984, dated 1986)", "key": {"aromatase": {"target": "T1, aromatase (Rattus norvegicus, UniProt P22443)", "T1 construct": "ovarian microsomes are obtained from rats treated with pregnant mares serum gonadotropin; from tissue; host or cells: ovarian microsomes from rats treated with pregnant mares serum gonadotropin", "T1 sequence (P22443 1-508)": "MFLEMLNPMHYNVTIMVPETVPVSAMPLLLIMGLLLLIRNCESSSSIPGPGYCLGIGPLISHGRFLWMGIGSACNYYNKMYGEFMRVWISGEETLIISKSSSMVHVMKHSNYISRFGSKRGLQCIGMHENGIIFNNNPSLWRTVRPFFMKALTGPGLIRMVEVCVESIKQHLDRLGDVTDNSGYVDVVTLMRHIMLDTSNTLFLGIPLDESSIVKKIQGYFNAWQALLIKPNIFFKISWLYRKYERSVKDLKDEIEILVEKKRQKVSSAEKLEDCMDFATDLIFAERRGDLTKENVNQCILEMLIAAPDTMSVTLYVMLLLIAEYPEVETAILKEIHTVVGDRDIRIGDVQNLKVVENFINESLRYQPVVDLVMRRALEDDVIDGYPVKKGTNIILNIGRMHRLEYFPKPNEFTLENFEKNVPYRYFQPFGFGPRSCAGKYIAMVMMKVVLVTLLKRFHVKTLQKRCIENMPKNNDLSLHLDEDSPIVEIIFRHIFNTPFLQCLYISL", "test": "Aromatase inhibition in the rat ovarian microsome assay", "format": "biochemical", "description": "In this test system, ovarian microsomes are obtained from rats treated with pregnant mares serum gonadotropin. Test compounds are added to reaction vials containing 0.1 μM 4-androstene-3,17-dione, 100,000 dpm 1,2[^3 H]-androstenedione, the microsomes and a NADPH generating system. The concentrations of the inhibitors tested ranged between 0.005 and 10 μM."}, "breast cancer": {"system": "breast cancer", "conditions": "Cancer Research, Vol. 42, Suppl. 8:3261s (1982); cited from earlier work"}, "[1]": {"system": "DMBA-induced mammary tumors", "test": "DMBA-induced mammary tumor inhibition", "format": "in vivo, rat (female Sprague-Dawley)", "conditions": "Test I, 20 mg/kg, once daily by gavage in corn oil", "description": "Mammary tumors were produced in female Sprague-Dawley rats which were 50-60 days old by the gavage administration of 20 mg of 7,12-dimethylbenz[α]anthracene (DMBA). About six weeks after DMBA administration, the mammary glands were palpated at weekly intervals for the appearance of tumors. Whenever one or more tumors appeared and were measurable in an animal, that animal was selected for experimentation. […] Each control and test group contained 8 animals. The test compound was administered in corn oil and administered once daily by gavage.\nEvery experiment included a group of control rats having tumors that were given corn oil vehicle by gavage. […] The area of each tumor was calculated by multiplying the shortest and longest diameters of the tumor. The treatment and measurement of animals continued for five weeks at which time the final areas of the tumors were determined. The change in the mean tumor area was determined, and the means change was analyzed for its significance using Dunnett's t-test."}, "aromatization [2]": {"system": "aromatization", "test": "Estrogen synthesis inhibition in rats: ovarian steroid concentrations", "format": "in vivo, rat (immature female Wistar)", "conditions": "ovary, 7 days", "description": "(§1) Immature female Wistar rats (45-55 grams) were divided into control and test groups of 4-8 animals each. Test compounds were administered for seven days as a component of the diet. Control animals received diet without the test compound. Beginning on the fourth day of the test, all animals treated with the test compound and one half of the control animals were given a subcutaneous injection of 1.0 mg of testosterone propionate in corn oil. The remaining control animals received only an equivalent volume of corn oil. On the seventh day of the test, rats treated with testosterone propionate were injected subcutaneously with 100 μCi of [^3 H]-testosterone in 50 μl of 3:1 (v/v) saline-ethanol.\nOvaries from rats treated with [^3 H]-testosterone were excised, cleaned of extraneous tissue, and homogenized in 2.5 ml of a 1.0 mM potassium phosphate buffer containing 3.0 mM MgCl2.6H2 O, 320 mM sucrose, and 0.25% Triton X-100 (polyethylene glycol p-isooctyl phenyl ether, Rohm and Hass) at pH 6.5. The ovarian steroids were extracted with 1.5 ml of 9:1 (v/v) toluene/ethanol to which had been added 25 to 100 mcg each of unlabelled estradiol, estriol, and estrone, and approximately 1000 dpm of [^14 C]-estradiol. The samples were vortexed, centrifuged at 500×g for 10 minutes, and the organic phase was transferred to a conical vial. Two additional extractions were performed on the residue in the same way. The pooled organic extracts were evaporated for subsequent thin-layer chromatography.\nOvarian proteins were precipitated by the addition of 5.0 ml of ethanol to the remaining aqueous phase. After an overnight incubation at 4° C., the samples were centrifuged at 1500×g for 10 minutes. The supernatant was discarded and the pellet was dissolved in 0.3N potassium hydroxide. Protein was determined according to the method of Bradford, Analytical Biochemistry, 72, 248 (1976).\nThe organic residue from each above extraction was redissolved in 9:1 (v/v) dichloromethane/methanol. The solution of each sample was applied to separate silica gel thin layer chromatography plates which contained a fluorescent indicator. The plates were developed in the first dimension with 160:38:1.5:0.5 (v/v/v/v) dichloromethane/ethyl acetate/methanol/acetic acid to within 3 cm of the top of the plate. After air-drying, the plate was developed in the second dimension with 180:19:1 (v/v/v) dichloromethane/methanol/ammonium hydroxide. The plate was air-dried and viewed under 254 nm UV light.\nThe visible spots were marked and the plates were sprayed with primulin (0.001% in 4:1 v/v acetone/water) according to the method of Wright, J. Chromatography, 59, 220 (1971) which allowed for the identification of additional steroids under 365 nm UV light. The spots were scraped from the plate using a glass wool plugged Pasteur pipet attached to a vacuum line. The steroids were eluted directly into scintillation vials by the addition of 0.2 ml of dichloromethane followed by two washes each of 2.0 ml of methanol. The organic solvent was evaporated and 10.0 ml of scintillation fluid (Beckman Ready Solv-NA) was added to the vials. Samples were analyzed by liquid scintillation spectrometry. Corrections were made based on the recoveries of the [^14 C]-steroid. Steroid concentrations are expressed as femtomoles per milligram protein."}, "aromatization [3]": {"system": "aromatization", "test": "Estrogen synthesis inhibition in rats: uterine weight", "format": "in vivo, rat (immature female Wistar)", "conditions": "7 days, testosterone propionate treated", "description": "as §1\nAfter two hours, the animals were killed by decapitation. Uteri were isolated, trimmed of extraneous connective tissue, and weighed. […] In the control animals treated with testosterone propionate, estrogens produced by aromatization stimulated the uterus resulting in an increase in weight."}, "[4]": {"conditions": "rat ovarian microsomes, substrate (androstenedione) 0.1 μM, read-out: EC50 (concentration required to achieve 50% inhibition of aromatase activity)"}, "[5]": {"conditions": "Test I, 30 ppm in feed (approx. 3 mg/kg/day)"}, "[6]": {"conditions": "Test I, 300 ppm in feed (approx. 30 mg/kg/day)"}, "[7]": {"conditions": "Test II, 200 ppm in feed (approx. 20 mg/kg/day)"}}, "note": "Counter-ions that a name gives are not always drawn. Like-named read-outs stand apart in the source and are kept apart here."}
{"compound": "c1ccc(C(Cc2c[nH]cn2)c2ccccc2)cc1", "note": "[4(5)-(2,2-diphenylethyl)imidazole, 4(5)-(2,2-Diphenylethyl)imidazole]", "values": [{"measurement": "EC50", "setting": "aromatase", "result": 0.094, "unit": "µM"}]}
{"compound": "CCC1(c2ccc(N)cc2)CCC(=O)NC1=O", "note": "(centres unmarked) [aminoglutethimide]", "values": [{"measurement": "effect in treatment of breast cancer", "setting": "breast cancer", "result": "beneficial effect"}]}
{"compound": "C[C@]12C=CC(=O)C=C1CC[C@@H]1[C@@H]2CC[C@]2(C)OC(=O)CC[C@@H]12", "note": "[testolactone]", "values": [{"measurement": "effect in treatment of breast cancer", "setting": "breast cancer", "result": "beneficial effect"}]}
{"compound": "NC(=O)C(Cc1c[nH]cn1)(c1ccc(Cl)cc1)c1ccc(Cl)cc1", "note": "[α,α-Bis(4-chlorophenyl)-1H-imidazole-4(5)-propionamide hydrochloride]", "values": [{"measurement": "EC50", "setting": "aromatase; [4]", "result": "< 0.05", "unit": "µM"}]}
{"compound": "NC(=O)C(Cc1c[nH]cn1)(c1ccccc1)c1ccccc1", "note": "[α,α-Diphenylimidazole-4-propionamide hydrochloride]", "values": [{"measurement": "EC50", "setting": "aromatase; [4]", "result": 0.118, "unit": "µM"}]}
{"compound": "N#CC(Cc1c[nH]cn1)(c1ccc(Cl)cc1)c1ccc(Cl)cc1", "note": "[α,α-bis(4-chlorophenyl)-imidazole-4(5)-propionitrile, maleic acid salt]", "values": [{"measurement": "Mean Tumor Area, Finish", "setting": "[1]; 5 weeks, control 78.3 to 980.8, + p < 0.05 vs control", "result": 389.7, "unit": "mm^2"}, {"measurement": "Mean Tumor Area, Start", "setting": "[1]; start of test (baseline)", "result": 67.0, "unit": "mm^2"}, {"measurement": "Mean Steroid Concentration, estradiol", "setting": "aromatization [2]; [5]", "result": "1.36 femtomoles per milligram of protein"}, {"measurement": "Mean Steroid Concentration, estriol", "setting": "aromatization [2]; [5]", "result": "0.72 femtomoles per milligram of protein"}, {"measurement": "Mean Steroid Concentration, estrone", "setting": "aromatization [2]; [5]", "result": "0.11 femtomoles per milligram of protein"}, {"measurement": "Mean Steroid Concentration, estradiol", "setting": "aromatization [2]; [6]", "result": "1.06 femtomoles per milligram of protein"}, {"measurement": "Mean Steroid Concentration, estriol", "setting": "aromatization [2]; [6]", "result": "0.23 femtomoles per milligram of protein"}, {"measurement": "Mean Steroid Concentration, estrone", "setting": "aromatization [2]; Test I, 300 ppm in feed (approx. 30 mg/kg/day), + p < 0.05 vs testosterone-treated control", "result": "0.00 femtomoles per milligram of protein"}, {"measurement": "Mean Uterine Weight", "setting": "aromatization [3]; Test I, 30 ppm in feed (approx. 3 mg/kg/day), 4 animals", "result": 166.0, "unit": "mg"}, {"measurement": "Mean Uterine Weight", "setting": "aromatization [3]; Test I, 300 ppm in feed (approx. 30 mg/kg/day), 5 animals, + p < 0.05 vs testosterone-treated control", "result": 141.6, "unit": "mg"}, {"measurement": "EC50", "setting": "aromatase; [4]", "result": 0.062, "unit": "µM"}]}
{"compound": "N#CC(Cc1c[nH]cn1)(c1ccccc1)c1ccccc1", "note": "[α,α-diphenylimidazole-4(5)-propionitrile, maleic acid salt]", "values": [{"measurement": "EC50", "setting": "aromatase; [4]", "result": 0.165, "unit": "µM"}]}
{"compound": "N#CC(Cc1c[nH]cn1)(c1ccccc1)c1cccc(Cl)c1", "note": "(stereo not drawn) [α-(3-chlorophenyl)-α-phenyl-imidazole-4(5)-propionitrile hydrochloride]", "values": [{"measurement": "EC50", "setting": "aromatase; [4]", "result": 0.078, "unit": "µM"}]}
{"compound": "N#CC(Cc1c[nH]cn1)(c1ccccc1)c1ccc(Cl)cc1", "note": "(stereo not drawn) [α-(4-chlorophenyl)-α-phenyl-imidazole-4(5)-propionitrile, maleic acid salt]", "values": [{"measurement": "EC50", "setting": "aromatase", "result": 0.072, "unit": "µM"}]}
{"compound": "COc1ccc(C(C#N)(Cc2c[nH]cn2)c2ccccc2)cc1", "note": "(stereo not drawn) [α-(4-methoxyphenyl)-α-phenyl-imidazole-4(5)-propionitrile, maleic acid salt]", "values": [{"measurement": "EC50", "setting": "aromatase; [4]", "result": 0.18, "unit": "µM"}]}
{"compound": "N#CC(Cc1c[nH]cn1)(c1ccccc1)c1cccnc1", "note": "(stereo not drawn) [α-[1-imidazol-4(5)-ylmethyl]-α-phenyl-3-pyridineacetonitrile dihydrochloride]", "values": [{"measurement": "EC50", "setting": "aromatase; [4]", "result": 0.56, "unit": "µM"}]}
{"compound": "N#CC(Cc1c[nH]cn1)(c1ccccc1)c1ccc(C(F)(F)F)cc1", "note": "(stereo not drawn) [α-phenyl-α-(4-trifluoromethylphenyl)-1H--imidazole-4(5)-propionitrile]", "values": [{"measurement": "Mean Steroid Concentration, estradiol", "setting": "aromatization [2]; [7]", "result": "1.01 femtomoles per milligram of protein"}, {"measurement": "Mean Steroid Concentration, estriol", "setting": "aromatization [2]; [7]", "result": "0.31 femtomoles per milligram of protein"}, {"measurement": "Mean Steroid Concentration, estrone", "setting": "aromatization [2]; [7]", "result": "0.00 femtomoles per milligram of protein"}, {"measurement": "Mean Uterine Weight", "setting": "aromatization [3]; Test II, 200 ppm in feed (approx. 20 mg/kg/day), 5 animals, + p < 0.05 vs testosterone-treated control", "result": 142.2, "unit": "mg"}, {"measurement": "EC50", "setting": "aromatase; [4]", "result": 0.073, "unit": "µM"}]}
